Laboratory results: ChEMBL document CHEMBL1777673, “Synthesis and biological evaluation of 3-alkyl-dihydrotetrabenazine derivatives as vesicular monoamine transporter-2 (VMAT2) ligands” (Bioorg Med Chem Lett, 2011)
pKi: −log10 of the molar value.

How the values were obtained:
[1] = biological target: T1, Synaptic vesicular amine transporter (Rattus norvegicus, UniProt Q01827); assay: Displacement of [18F](+)-FP-DTBZ from VMAT2 in rat striatal homogenate after 60 mins by gamma counting
[2] = biological target: T1, Synaptic vesicular amine transporter; assay: Displacement of [125I]-iodovinyl-TBZ from VMAT2 in rat striatal homogenate after 60 mins by gamma counting
Nucleic Acid = assay: Ratio of drug uptake in striatum to cerebellum in ICR mouse at 10 to 20 uCi, iv by gamma counting; type: ADME, organism-based; conditions: in vivo

T1 sequence (Q01827 whole entry): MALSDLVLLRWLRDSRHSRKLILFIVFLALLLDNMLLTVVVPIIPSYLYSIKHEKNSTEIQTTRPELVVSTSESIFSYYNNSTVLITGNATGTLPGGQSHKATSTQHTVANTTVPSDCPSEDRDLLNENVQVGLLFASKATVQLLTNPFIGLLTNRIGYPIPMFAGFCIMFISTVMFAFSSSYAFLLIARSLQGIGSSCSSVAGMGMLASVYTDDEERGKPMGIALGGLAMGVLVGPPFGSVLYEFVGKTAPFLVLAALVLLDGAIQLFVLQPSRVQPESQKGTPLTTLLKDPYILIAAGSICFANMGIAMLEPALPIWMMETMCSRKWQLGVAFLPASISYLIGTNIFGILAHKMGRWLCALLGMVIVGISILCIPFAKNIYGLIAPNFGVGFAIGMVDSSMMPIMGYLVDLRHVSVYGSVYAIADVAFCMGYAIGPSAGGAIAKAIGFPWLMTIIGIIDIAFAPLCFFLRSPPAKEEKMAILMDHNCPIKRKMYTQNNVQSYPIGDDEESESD

SMILES	pKi [2]	further results
C=CCC1CN2CCc3cc(OC)c(OC)cc3C2C[C@H]1O (mixture of isomers)	–	pKi [1]: 6.60
COc1cc2c(cc1OC)C1C[C@@H](O)C(CC3CCC3)CN1CC2 (mixture of isomers)	7.57	–
COc1cc2c(cc1OC)C1C[C@@H](O)C(CC3CCCC3)CN1CC2 (mixture of isomers)	6.64	–
COc1cc2c(cc1OC)C1C[C@@H](O)C(CC3CCCCC3)CN1CC2 (mixture of isomers)	6.86	–
C/C=C/C1CN2CCc3cc(OCCCF)c(OC)cc3C2C[C@H]1O (mixture of isomers)	–	pKi [1]: 7.65
COc1cc2c(cc1OCCC[18F])CCN1C[C@@H](CC(C)C)[C@H](O)C[C@H]21 [FLORBENAZINE F 18]	–	Ratio (Nucleic Acid): 4.51
COc1cc2c(cc1OCCCF)CCN1C[C@@H](CC(C)C)[C@H](O)C[C@H]21 [FLORBENAZINE]	10.00	–
